Measurements published in patent US10035814B2, “Guanine analogs as telomerase substrates and telomere length affectors” (Geron Corporation, priority 2011, dated 2018).
Values joined by “and” are separate entries in the source; they are usually repeats but may differ in a detail not shown here. Equal values may be shown once.

How the values were obtained:
telomerase = telomerase (Homo sapiens (Human), UniProt O14746); experiment: Primer extension assay for telomerase activity; assay type: biochemical; conditions: for EC50: read-out: Primer Ext. Assay EC50
telomerase, sequence (O14746 whole entry): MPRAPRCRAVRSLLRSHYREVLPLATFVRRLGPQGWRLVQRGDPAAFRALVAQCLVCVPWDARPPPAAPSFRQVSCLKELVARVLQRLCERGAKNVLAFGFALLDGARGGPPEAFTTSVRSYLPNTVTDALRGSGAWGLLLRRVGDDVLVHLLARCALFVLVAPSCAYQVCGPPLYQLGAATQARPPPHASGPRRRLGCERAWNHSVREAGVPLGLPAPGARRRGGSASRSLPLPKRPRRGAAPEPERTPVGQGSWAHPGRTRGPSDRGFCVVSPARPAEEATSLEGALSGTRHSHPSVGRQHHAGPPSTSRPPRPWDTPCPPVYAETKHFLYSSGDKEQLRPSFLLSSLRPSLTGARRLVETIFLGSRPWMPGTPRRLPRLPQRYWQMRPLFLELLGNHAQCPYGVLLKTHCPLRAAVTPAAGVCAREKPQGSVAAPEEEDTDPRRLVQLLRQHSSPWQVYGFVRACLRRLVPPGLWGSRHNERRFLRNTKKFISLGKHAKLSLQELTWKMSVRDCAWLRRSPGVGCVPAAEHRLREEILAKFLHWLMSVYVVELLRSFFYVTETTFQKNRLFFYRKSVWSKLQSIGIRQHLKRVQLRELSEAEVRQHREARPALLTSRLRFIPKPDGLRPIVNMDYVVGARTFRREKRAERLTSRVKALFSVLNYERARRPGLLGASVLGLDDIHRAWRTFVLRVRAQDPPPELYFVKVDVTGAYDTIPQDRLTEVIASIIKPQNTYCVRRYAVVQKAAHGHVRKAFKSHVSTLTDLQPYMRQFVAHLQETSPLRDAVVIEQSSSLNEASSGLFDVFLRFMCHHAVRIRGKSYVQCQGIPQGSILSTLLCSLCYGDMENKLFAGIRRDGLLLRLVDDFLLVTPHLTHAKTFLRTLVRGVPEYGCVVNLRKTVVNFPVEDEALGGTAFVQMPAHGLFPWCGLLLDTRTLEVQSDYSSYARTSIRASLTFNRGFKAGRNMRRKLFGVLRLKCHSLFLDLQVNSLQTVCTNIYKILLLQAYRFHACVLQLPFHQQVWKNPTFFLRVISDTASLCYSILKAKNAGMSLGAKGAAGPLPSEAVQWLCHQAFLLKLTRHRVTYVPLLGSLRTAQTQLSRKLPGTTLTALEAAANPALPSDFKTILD
Protocol: Purified human telomerase was incubated with d(TTAGGG)3 (SEQ ID NO: 1) and deoxy-nucleoside triphosphates for 90 minutes at 37° C. All reactions were done in the presence of 200 dTTP and 10 μM dATP (50,000 cpm/pmol a-^33P-dATP). Activity was determined by incubating affinity purified telomerase extract with 1 μM primer [d(TTAGGG)3] (SEQ ID NO: 1), 200 μM dTTP, 50 μM dGTP, 10 μM dATP, 10 μCi [α-^33P]dATP (2000-4000 Ci/mmol) in a buffer containing 50 mM (N-2-hydroxyethyl piperazine-N′-3 propanesulfonic acid)-NaOH pH 8.5, 1 mM MgCl2, 1 mM DTT, 5% glycerol, 0.5 mM EGTA and 100 mM KOAc in a final reaction volume of 40 μl. Primer extension products were analyzed on a 15% polyacrylamide gel containing 7 M urea. A characteristic telomerase ladder has multiple bands. If a compound is not a substrate then (TTAGGG)3TTA (21 nt) (SEQ ID NO: 2). If a compound is a chain terminator then (TTAGGG)3TTAG* (22 nt) (SEQ ID NO: 3).
Purified human telomerase was incubated with d(TTAGGG)3 (SEQ ID NO: 1) and deoxy-nucleoside triphosphates for 90 minutes at 37° C. All reactions were done in the presence of 200 dTTP and 10 μM dATP (50,000 cpm/pmol a-^33P-dATP). Activity was determined by incubating affinity purified telomerase extract with […] primer [d(TTAGGG)3] (SEQ ID NO: 1), […] [α-^33P]dATP (2000-4000 Ci/mmol) in a buffer containing 50 mM (N-2-hydroxyethyl piperazine-N′-3 propanesulfonic acid)-NaOH pH 8.5, 1 mM MgCl2, 1 mM DTT, 5% glycerol, 0.5 mM EGTA and 100 mM KOAc in a final reaction volume of 40 μl. Primer extension products were analyzed on a 15% polyacrylamide gel containing 7 M urea. A characteristic telomerase ladder has multiple bands. If a compound is not a substrate then (TTAGGG)3TTA (21 nt) (SEQ ID NO: 2). If a compound is a chain terminator then (TTAGGG)3TTAG* (22 nt) (SEQ ID NO: 3).

telomerase in HT3 cells = telomerase in HT3 cells (Homo sapiens (Human), UniProt O14746); experiment: Ex vivo TRAP assay in HT3 cells; assay type: cell-based; conditions: HT3 cells; for EC50: 3 days, read-out: ExVivo TRAP EC50 (μM)- 3 Day Assay
telomerase in HT3 cells, sequence (O14746 whole entry): as above
telomerase in HT3 cells, sequence (O60832 whole entry partner): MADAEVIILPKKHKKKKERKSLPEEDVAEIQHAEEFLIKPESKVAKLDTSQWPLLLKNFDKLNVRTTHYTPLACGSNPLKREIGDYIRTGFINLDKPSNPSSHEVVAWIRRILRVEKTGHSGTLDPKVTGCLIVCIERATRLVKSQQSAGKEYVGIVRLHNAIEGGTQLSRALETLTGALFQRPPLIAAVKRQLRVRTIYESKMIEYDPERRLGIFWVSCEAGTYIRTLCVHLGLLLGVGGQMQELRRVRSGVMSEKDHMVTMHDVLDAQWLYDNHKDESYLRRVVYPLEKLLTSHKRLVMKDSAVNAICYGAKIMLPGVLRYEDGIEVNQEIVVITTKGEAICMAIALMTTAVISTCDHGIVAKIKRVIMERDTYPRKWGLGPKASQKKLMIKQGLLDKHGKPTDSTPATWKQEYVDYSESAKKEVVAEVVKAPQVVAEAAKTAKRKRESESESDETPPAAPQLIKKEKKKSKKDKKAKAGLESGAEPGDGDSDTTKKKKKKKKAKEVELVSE
telomerase in HT3 cells, sequence (Q9NX24 whole entry partner): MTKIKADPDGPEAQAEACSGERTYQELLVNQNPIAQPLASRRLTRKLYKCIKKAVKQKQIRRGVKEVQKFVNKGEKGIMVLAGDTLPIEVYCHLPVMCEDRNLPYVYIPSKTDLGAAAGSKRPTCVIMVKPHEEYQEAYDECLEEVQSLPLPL
telomerase in HT3 cells, sequence (Q9NPE3 whole entry partner): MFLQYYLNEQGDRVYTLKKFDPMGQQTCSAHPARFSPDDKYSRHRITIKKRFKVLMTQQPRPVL
telomerase in HT3 cells, sequence (Q9NY12 whole entry partner): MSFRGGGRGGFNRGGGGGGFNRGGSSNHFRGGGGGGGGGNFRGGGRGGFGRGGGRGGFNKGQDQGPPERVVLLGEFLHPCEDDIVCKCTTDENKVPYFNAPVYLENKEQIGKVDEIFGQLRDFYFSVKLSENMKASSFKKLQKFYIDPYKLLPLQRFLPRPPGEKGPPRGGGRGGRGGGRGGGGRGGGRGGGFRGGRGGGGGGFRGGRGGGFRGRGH
telomerase in HT3 cells, sequence (Q9BUR4 whole entry partner): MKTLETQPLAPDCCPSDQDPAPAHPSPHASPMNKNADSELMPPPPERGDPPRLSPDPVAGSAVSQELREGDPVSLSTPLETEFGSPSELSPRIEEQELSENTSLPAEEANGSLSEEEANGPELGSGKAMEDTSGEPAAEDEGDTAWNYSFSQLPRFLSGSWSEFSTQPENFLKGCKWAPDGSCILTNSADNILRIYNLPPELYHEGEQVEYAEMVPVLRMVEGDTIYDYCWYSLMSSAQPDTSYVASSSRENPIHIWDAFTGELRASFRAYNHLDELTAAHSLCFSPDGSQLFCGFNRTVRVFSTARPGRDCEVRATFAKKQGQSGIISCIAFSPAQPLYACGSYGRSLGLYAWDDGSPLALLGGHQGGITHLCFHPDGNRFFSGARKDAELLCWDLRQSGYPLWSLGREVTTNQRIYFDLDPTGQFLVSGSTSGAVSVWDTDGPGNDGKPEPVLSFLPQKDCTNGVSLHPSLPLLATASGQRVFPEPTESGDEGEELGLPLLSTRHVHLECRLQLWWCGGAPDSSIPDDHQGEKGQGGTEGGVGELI
Protocol: HT3 cells were treated for three days with increasing concentrations of PMPG-diisopropyloxy ester ranging from 0.2 μM to 20 μM. Cells (HT3 RPMI+10% PBS) were incubated with compound for 24 hr after which PSTS primer (phosphorothioate-d(AATCCGTCGAGCAGAGTT (SEQ ID NO: 6) containing a 5′ Cy-5 label) (7.5 μM) and fresh compound are added for an additional 24 hr. Cells were lysed and endogenous telomerase inactivated by heating (15 min, 75° C.). Products were amplified by 30 cycles of PCR under TRAP conditions set forth above and quantified. The results of two independent experiments are shown in Table 4.
HT3 cells were treated for three days with increasing concentrations of one or more of the indicated compounds ranging from 0.2 μM to 20 μM. Cells (HT3 RPMI+10% FBS) were incubated with compound for 24 hours, after which PSTS primer (phosphorothioate-d AATCCGTCGAGCAGAGTT (SEQ ID NO: 6) containing a 5′ Cy-5 label) (7.5 μM) and fresh compound were added for an additional 24 hours. Cells were lysed and endogenous telomerase inactivated by heating (15 minutes, 75° C.). Products were amplified by 30 cycles of PCR under TRAP conditions set forth in Kim et al., Science 266:2011, […] (which reference is incorporated herein in its entirety) and quantified.

Compound	Primer Ext. Assay Notes: telomerase substrate / chain terminator (telomerase)	EC50 (telomerase)	EC50 (telomerase in HT3 cells)	also measured
CC(C)OC(=O)OCOP(=O)(COC(C)Cn1cnc2c(=O)[nH]c(N)nc21)OCOC(=O)OC(C)C (single isomer, unassigned) [ID#142748, PMPG prodrug, S form]				IC50 (telomerase in HT3 cells; 0.2 μM to 20 μM, two independent experiments, read-out: Ex vivo Assay IC 50): > 20 µM
CC(Cn1cnc2c(=O)[nH]c(N)nc21)OCP(=O)(O)O (single isomer, unassigned) [compound 142693]			11.7 µM	
CC(C)OC(=O)OCOP(=O)(COC(C)Cn1cnc2c(=O)[nH]c(N)nc21)OCOC(=O)OC(C)C (single isomer, unassigned) [compound 142715]			1.2 µM and 3.1 µM	
CC(Cn1cnc2c(=S)[nH]c(N)nc21)OCP(=O)(O)OP(=O)(O)OP(=O)(O)O (stereo not drawn) [Compound 142752]	Weak chain terminator.			
CC(Cn1cnc2c(=S)[nH]c(N)nc21)OCP(=O)(O)OP(=O)(O)OP(=O)(O)O (stereo not drawn) [Compound 142761]	Chain terminator	13.5 µM		
C=C(COCP(=O)(O)OP(=O)(O)OP(=O)(O)O)Cn1cnc2c(=O)[nH]c(N)nc21 [Compound 142810]	Chain Terminator.	1.4 µM		
CC(COCP(=O)(O)OP(=O)(O)OP(=O)(O)O)n1cnc2c(=O)[nH]c(N)nc21 (stereo not drawn) [Compound 142879]	Chain terminator.	3.1 µM		
C=C(COCP(=O)(O)OP(=O)(O)OP(=O)(O)O)Cn1cnc2c(=O)[nH]c(N)nc21 [ID#142810, PMIBeG, free acid]				potency relative to PMPG (R-PMPGpp), times less potent (telomerase): approximately two times less potent than R-PMPGpp
CC(Cn1cnc2c(=S)[nH]c(N)nc21)OCP(=O)(O)O (stereo not drawn) [compound 142694]			7.54 µM	
C=C(COCP(=O)(O)O)Cn1cnc2c(=O)[nH]c(N)nc21 [compound 142811]			2.6 µM	
CC(Cn1cnc2c(=O)[nH]c(N)nc21)OCP(=O)(O)NCCCNCCCCN (stereo not drawn) [compound 142812]			5 µM	
C=C(COCP(=O)(O)NCCCNCCCCN)Cn1cnc2c(=O)[nH]c(N)nc21 [compound 142873]			6.7 µM	
CC(Cn1cnc2c(=O)[nH]c(N)nc21)OCP(=O)(O)NCCCNCCCCNCCCNP(=O)(O)COC(C)Cn1cnc2c(=O)[nH]c(N)nc21 (stereo not drawn) [compound 142942]			1.84 µM	
CCCCCCCCCCNP(=O)(O)COC(C)Cn1cnc2c(=O)[nH]c(N)nc21 (stereo not drawn) [compound 142962]			1.44 µM	

More lines, main results first:

Primer Ext. Assay Notes: telomerase substrate / chain terminator (telomerase)	EC50 (telomerase)	EC50 (telomerase in HT3 cells)	Compound	also measured
Chain terminator.	0.5 to 1.2 µM		CC(Cn1cnc2c(=O)[nH]c(N)nc21)OCP(=O)(O)OP(=O)(O)OP(=O)(O)O (single isomer, unassigned) [Compound 142692]	
Weak chain terminator.			C[C@@H](COCP(=O)(O)OP(=O)(O)OP(=O)(O)O)Cn1cnc2c(=O)[nH]c(N)nc21 (stereo in doubt) [Compound 142860]	
Weak chain terminator.			CC(Cn1cnc2c(=O)[nH]c(N)nc21)OCP(=O)(O)OP(=O)(O)OP(=O)(O)O (stereo not drawn) [Compound 142751]	
Weak chain terminator.			C[C@H](Cn1cnc2c(=O)[nH]c(N)nc21)SCP(=O)(O)OP(=O)(O)OP(=O)(O)O [Compound 142823]	
Chain terminator.	4.4 µM		CC(COCP(=O)(O)OP(=O)(O)OP(=O)(O)O)Cn1cnc2c(=O)[nH]c(N)nc21 (stereo not drawn) [Compound 142846]	
Chain terminator	1.5 µM		Nc1nc2c(ncn2CCCOCP(=O)(O)OP(=O)(O)OP(=O)(O)O)c(=O)[nH]1 [Compound 142848]	potency relative to PMPG (R-PMPGpp), times less potent (telomerase): ~2
Weak chain terminator.			Nc1nc2c(ncn2CC(OCP(=O)(O)OP(=O)(O)OP(=O)(O)O)C(F)(F)F)c(=O)[nH]1 (stereo not drawn) [Compound 142850]	
Chain terminator.	7.5 µM		Nc1nc2c(ncn2CC(CF)OCP(=O)(O)OP(=O)(O)OP(=O)(O)O)c(=O)[nH]1 (stereo not drawn) [Compound 142856]	
Weak chain terminator.			CC(C)(Cn1cnc2c(=O)[nH]c(N)nc21)OCP(=O)(O)OP(=O)(O)OP(=O)(O)O [Compound 142891]	
	> 60 µM		C[C@H](CCn1cnc2c(=O)[nH]c(N)nc21)OCP(=O)(O)OP(=O)(O)OP(=O)(O)O [Compound 142915]	
	10 µM		CC[C@H](Cn1cnc2c(=O)[nH]c(N)nc21)OCP(=O)(O)OP(=O)(O)OP(=O)(O)O [Compound 142916]	
